Data set [1] has as its system XP-A, XP-B, XP-C, XP-D, XP-E, XP-F, CS-A, CS-B, ERCC1, ERCC5. In words: DNA damage profile by DNA repair gene. The class given is cell-based. The following applies: symbols not defined.
In data set [2] the test system is 8392B Nontarget Cell Line. Kind of data set: two hour toxicity: 2 hr exposure, concentration inhibiting 50% of DNA synthesis activity. The class given is cell-based. The conditions noted are these: at 26,000 nM ([…] μM). As for the experimental part:
(§1) In various embodiments of the invention, the MV522 cell line represents a “target” cell line. […] The two hour toxicity data represents the concentration of a given analog for which a two hour exposure will inhibit 50% of the DNA synthesis activity in a given cell line. The 48 hour exposure data represents the concentration at which a given analog with a 48 hour exposure will inhibit the growth or viability in a given cell line as defined by the standard Trypan Blue Exclusion assay.

Data set [3] has as its system Mechanism of Multi-drug Resistance. Kind of data set: multidrug resistance: resistance by mechanism of multi-drug resistance.
Data set [4] deals with MV522 cell line (a lung-derived adenocarcinoma cell line). In words: tumor regression (FIG. 1). The class given is in vivo. The conditions noted are these: MV522, FIG. 1.
The test system of data set [5] is NIH3T3 MYC+ and NIH3T3 MYC-null. In words: influence of c-myc expression on cytotoxicity, Cell Count (%). The following applies: for effect of c-myc (MYC) expression on cellular sensitivity: FIG. 4A-4D, cisplatin data not shown.
In data set [6] the test system is c-myc positive daughter line Myc/Rat1A (Myc/ER). In words: role of c-myc in cytotoxicity, c-myc expression induced by 4-hydroxytamoxifen (4HOT). The data set is classed as cell-based. The conditions noted are these: FIG. 2. The text has this: The expression of c-myc in this cell line is under the control of a modified receptor that responds to 4-hydroxytamoxifen (4HOT).

The next data set concerns MV522 Target Cell Line. Kind of data set: 48 hour exposure, growth or viability by Trypan Blue Exclusion assay. The data set is classed as cell-based. The following applies: MV522, 48 h, read-out: Mean IC50 value, MV522 Target Cell Line, 48 hr exposure. The protocol: as §1
For another data set, the system named is MCF7 (ER positive). Kind of data set: cytotoxic IC50, 2 hour exposure. The following applies: Homo sapiens, MCF7, 2 h, read-out: cytotoxic IC50 values, MCF7 (ER positive).
In data set [7] the test system is NCI DTP 60 cell line panel. Kind of data set: NCI DTP 60 Cell Line screen: Growth Inhibition (GI50), Total Growth Inhibition (TGI), Lethal Concentration (LC50/LD). The class given is cell-based, human. The following applies: mean over NCI DTP 60 cell line panel; for Mean LD50 cytotoxic: lethal concentration dose (cytotoxic effect); for GI50: growth inhibition; for Mean TGI cytostatic: total growth inhibition (cytostatic effect). As for the experimental part: In particular, an algorithm based on the obtained in vitro cell culture values (i.e. growth inhibition values (GI50), or the total growth inhibition (TGI), or the lethal concentration (LC50)) of cell lines (e.g., NCI60 cells) subjected to treatment with an illudofulvene, and gene expression is determined in these same cell lines (e.g., by microarray analysis, reverse transcriptase polymerase chain reaction (RT-PCR), quantitative real-time PCR (qPCR), or next generation sequencing). After normalization, genes with, e.g., a Pearson correlation coefficient greater than about 0.5 or below about −0.5 to one of the obtained in vitro cell culture values, can be classified as biomarkers of sensitivity or resistance, respectively. A probability or significance value can also be calculated for the correlation between the obtained in vitro cell culture values (i.e. growth inhibition values (GI50), or the total growth inhibition (TGI), or the lethal concentration (LC50)) and the normalized expression of a specific gene.
One can determine the growth inhibition (GI50), total growth inhibition (TGI), or lethal concentration (LC50) for a drug for each of the cell lines in the NCI DTP 60 cell line panel. One can use these 3 values to search for correlations against all gene expressions in all cell lines using the NCI's publicly available CELL MINER Software. Alternatively, one can down load for a specific gene its relative expression in each of the 60 cell lines using the NCI's publicly available COMPARE Software, and performs the expression for a specific gene.

From patent publication US11160807B1, “Methods, compositions and devices for treating cancer with illudofulvenes” (AF Chemicals, LLC, priority 2018, dated 2021) come the findings set out here.

As to `CC1=C(CO)C2=C(C)C3(CC3)[C@@](C)(O)C(=O)C2=C1` [Analog 002], the DNA damage profile in [1] (Gene XP-C) and in [1] (Gene XP-E) was 0 each time. The “Cytotoxicity? 2 hr incubation” value in the data set with B cell leukemias is recorded as “No”; in the data set with Lung carcinomas it was “Yes”; in the data set on Prostate carcinomas, “Yes”; in the data set with Fibroblasts (normal), “No”; in the data set on Myeloid leukemias, “Yes”; with Ovarian, “Yes”. For the same compound, the entries for the “Cytotoxicity? 2 hr incubation” value with Epidermoid, in the data set with Breast carcinomas and with T cell leukemias were “Yes”, “Yes” and “No”, respectively. Besides, the “Cytotoxicity? 48 hr incubation” value with B cell leukemias, in the data set on Lung carcinomas, with Prostate carcinomas, with Fibroblasts (normal), with Myeloid leukemias and with Ovarian was “Yes” throughout. Also, the “Cytotoxicity? 48 hr incubation” value in the data set on Epidermoid, in the data set on Breast carcinomas and in the data set with T cell leukemias was “Yes” each time. The “inhibitory effect on the nontarget 8392B cell line” value in [2] is “no inhibitory effect”. The “Resistance to Analog 001/Analog 002” value in data set [3] (Mechanism: BRCA status), in data set [3] (Mechanism: Bcl-2 expression), in data set [3] (Mechanism: DNA repair), in data set [3] (Mechanism: Gp170/MDR1), in [3] (Mechanism: Gp180/MRP) and in data set [3] (Mechanism: MGMT expression) was “No” each time. Further, the “Resistance to Analog 001/Analog 002” value in [3] (Mechanism: MVP/LRP (vault)), in data set [3] (Mechanism: Microtubulin alteration), in data set [3] (Mechanism: Myc expression), in data set [3] (Mechanism: P21 status), in data set [3] (Mechanism: P53 status) and in data set [3] (Mechanism: Thiol content/GST pi) was “No” each time. Moreover, the “Resistance to Analog 001/Analog 002” value in [3] (Mechanism: Topoisomerase I) and in [3] (Mechanism: Topoisomerase II) was “No” each time. Further, the “dependence of activity on common resistance mechanisms” value in data set [3] (multi-medicant resistance phenotype, Bcl-2 over expression, p53 and p21/WAF1 mutations) is listed as “independent”. The tumor regression result in data set [4] is recorded as “induce tumor regression”. Besides, in data set [5], the “effect of c-myc (MYC) expression on cellular sensitivity” value (“effect of c-myc (MYC) expression” below) is listed as “become sensitive”. Further, the “increase in sensitivity conferred by expression of cellular c-myc” value in data set [5] (NIH3T3 MYC+ compared to parental c-myc null NIH3T3, based on decrease in cell count, FIG. 3) is listed as “greater than 10 fold”. For the same compound, in [6], the “sensitivity on expression of c-myc in the presence of 4HOT” value is reported as “become sensitive”.

`CC1=C(COCCO)C2=C(C)C3(CC3)[C@@](C)(O)C(=O)C2=C1` [Analog 022]: the IC50 with MV522 Target Cell Line amounted to 680 ± 180 nM.

`CC1=C(CCC(=O)Oc2ccc3c(c2)CCC2C3CC[C@]3(C)C(O)CCC23)C2=C(C)C3(CC3)[C@@](C)(O)C(=O)C2=C1` (stereo partly shown) [Analog 108]: the IC50 in the data set with MCF7 (ER positive) amounted to 14100 ± 2800 nM.

In the case of `CC1=C2C(=CC(C)(C)[C@@H]2O)C(=O)[C@](C)(O)C12CC2` [Illudin M, illudin M, reference compound], in data set [7], the “Mean LD50 cytotoxic” value is reported as 291 nM.

As for `CCOCC1=C(C)C=C2C(=O)[C@](C)(O)C3(CC3)C(C)=C21` [Illudofulvene Analog 0016], in [7], halving of growth (GI50) required 102 nM, the “Mean LD50 cytotoxic” value is 4,270 nM and the “Mean TGI cytostatic” value is listed as 1,070 nM.

`COC(=O)C1=C(C(=O)OC)C23C=C(C)C1C2=C(C)C1(CC1)[C@@](C)(O)C3=O` (stereo partly shown) [Illudofulvene Analog 0142]: in data set [7], it took 447 nM to inhibit growth by half (GI50), the “Mean LD50 cytotoxic” value is on record as 53,700 nM and the “Mean TGI cytostatic” value is listed as 4,667 nM.

As to `CC(=O)OCC1(C)C=C2C(=O)[C@](C)(O)C3(CC3)C(C)=C2C1O` (stereo partly shown) [Illudofulvene Analog 0159], in [7], the GI50 was 117 nM, the “Mean LD50 cytotoxic” value is 14,790 nM and the “Mean TGI cytostatic” value was 2,090 nM.

As for `CC[C@H](C)[C@H](NC(=O)[C@H]1CCCCN1C)C(=O)N(COC(=O)CC(C)C)[C@H](C[C@@H](OC(C)=O)c1nc(C(=O)N[C@@H](Cc2ccc(O)cc2)C[C@H](C)C(=O)O)cs1)C(C)C` [Tubulysin A], the “Mean LD50 cytotoxic” value in data set [7] was >10,000 nM.

Take `N.N.[Cl][Pt][Cl]` [cisplatin]: in data set [5], the “effect of c-myc (MYC) expression” value is “did not alter cellular sensitivity”.

For `CO[C@@]12[C@H](COC(N)=O)C3=C(C(=O)C(C)=C(N)C3=O)N1C[C@@H]1N[C@@H]12` [mitomycin C], the “effect of c-myc (MYC) expression” value is on record as “did not alter cellular sensitivity” in data set [5] and “not sensitive” in data set [5] (listed as Mitomycin C).

`CC[C@@]1(O)C(=O)OCc2c1cc1n(c2=O)Cc2cc3c(CN(C)C)c(O)ccc3nc2-1` [topotecan]: the “effect of c-myc (MYC) expression” value in [5] is reported as “did not alter cellular sensitivity”; in [5] (listed as Topotecan), “not sensitive”.
